Laboratory results as given in patent US8017589B2, “Avermectin B1 and avermectin B1 monosaccharide derivatives having an alkoxymethyl substituent in the 4″-or 4′-position” (Syngenta Crop Protection LLC, priority 2002, dated 2011).

What was measured:
Format in all cases: in vivo
Plutella xylostella = test: Action against Plutella xylostella caterpillars (spray on young cabbage plants); details: 72 h, 12.5 ppm spray mixture, 10 caterpillars in the first stage, 3 days later, read-out: percentage reduction in population and percentage reduction in feeding damage (% activity)
Method: After the spray-coating has dried, the cabbage plants are populated with 10 caterpillars of Plutella xylostella in the first stage and placed in a plastics container. Evaluation is made 3 days later. The percentage reduction in population and the percentage reduction in feeding damage (% activity) are determined by comparing the number of dead caterpillars and the feeding damage on the treated plants with that on the untreated plants.

Tetranychus urticae = test: Action against Tetranychus urticae (spray on young bean plants); details: 144 h, 12.5 ppm spray mixture, mixed population, 6 days at 25° C., read-out: percentage reduction in population (% activity)
Method: The plants are incubated for 6 days at 25° C. and subsequently evaluated. The percentage reduction in population (% activity) is determined by comparing the number of dead eggs, larvae and adults on the treated plants with that on untreated plants.

Spodoptera littoralis = test: Action against Spodoptera littoralis (foliar spray on young soybean plants); details: 72 h, 12.5 ppm spray mixture, 10 caterpillars in the first stage, 3 days later, read-out: percentage reduction in population and percentage reduction in feeding damage (% activity)
Method: 3 days later, the percentage reduction in population and the percentage reduction in feeding damage (% activity) are determined by comparing the number of dead caterpillars and the feeding damage on the treated plants with that on untreated plants.

SMILES	inhibition at 12.5 ppm (Plutella xylostella) [%]	inhibition at 12.5 ppm (Tetranychus urticae) [%]	inhibition at 12.5 ppm (Spodoptera littoralis) [%]
CCC(C)[C@H]1O[C@]2(C=C[C@@H]1C)C[C@@H]1C[C@@H](C/C=C(\C)[C@@H](OC3C[C@H](OC)[C@@H](OC4C[C@H](OC)[C@H](OCOCCOC)[C@H](C)O4)[C@H](C)O3)C(C)/C=C/C=C3\CO[C@@H]4[C@H](O)C(C)=C[C@@H](C(=O)O1)[C@]34O)O2 (stereo partly drawn) [Compound 2.8, 4″-epi-O-(2-methoxyethoxymethyl)-Avermectin B1]	> 80	–	–
CCC(C)[C@H]1O[C@]2(C=C[C@@H]1C)C[C@@H]1C[C@@H](C/C=C(\C)[C@@H](OC3C[C@H](OC)[C@@H](OCOCCN)[C@H](C)O3)C(C)/C=C/C=C3\CO[C@@H]4[C@H](O)C(C)=C[C@@H](C(=O)O1)[C@]34O)O2 (stereo partly drawn) [Compound 3.19]	–	> 80	> 80
